According to patent US11591336B2 (Relay Therapeutics, Inc., priority 2017, dated 2023):
Where a name gives a salt, the structure may show the parent alone.

biological target: SHP2 (Homo sapiens (Human), UniProt Q06124); assay: SHP2 Allosteric Inhibition Assay (DiFMUP prompt fluorescence); type: biochemical; settings: 0.25 nM SHP2 activated with 0.5 μM peptide IRS1_pY1172(dPEG8)pY1222; substrate DiFMUP 100 μM; 25° C.

IC50	Structure (SMILES)
< 1000 nM	CNC(=O)c1ccc2c(n1)[C@H](C)CCN2c1n[nH]c2nc(N3CCC4(CC3)CO[C@@H](C)[C@H]4N)cnc12 [Compound 363, (8R)-5-{6-[(3S,4S)-4-amino-3-methyl-2-oxa-8-azaspiro[4.5]decan-8-yl]-1H-pyrazolo[3,4-b]pyrazin-3-yl}-N,8-dimethyl-5,6,7,8-tetrahydro-1,5-naphthyridine-2-carboxamide]
< 1000 nM	C[C@@H]1OCC2(CCN(c3cnc4c(N5CC[C@H](C)c6nc(C(=O)N(C)C)ccc65)n[nH]c4n3)CC2)[C@@H]1N [Compound 364, (8S)-5-{6-[(3S,4S)-4-amino-3-methyl-2-oxa-8-azaspiro[4.5]decan-8-yl]-1H-pyrazolo[3,4-b]pyrazin-3-yl}-N,N,8-trimethyl-5,6,7,8-tetrahydro-1,5-naphthyridine-2-carboxamide]
< 1000 nM	C[C@@H]1OCC2(CCN(c3cnc4c(N5CCCc6cc(-c7cnn(C)c7)ccc65)n[nH]c4n3)CC2)[C@@H]1N [Compound 365]
< 1000 nM	CNC(=O)c1ccc2c(c1)N(C)CCN2c1n[nH]c2nc(N3CCC4(CC3)CO[C@@H](C)[C@H]4N)cnc12 [Compound 366, 1-{6-[(3S,4S)-4-amino-3-methyl-2-oxa-8-azaspiro[4.5]decan-8-yl]-1H-pyrazolo[3,4-b]pyrazin-3-yl}-N,4-dimethyl-1,2,3,4-tetrahydroquinoxaline-6-carboxamide]
< 1000 nM	C[C@@H]1OCC2(CCN(c3cnc4c(N5CCN(C)c6c5cccc6S(C)(=O)=O)n[nH]c4n3)CC2)[C@@H]1N [Compound 367]
< 1000 nM	CCS(=O)(=O)c1cccc2c1CCCN2c1n[nH]c2nc(N3CCC4(CC3)CO[C@@H](C)[C@H]4N)cnc12 [Compound 368]
< 1000 nM	C[C@@H]1OCC2(CCN(c3cnc4c(N5CCCc6c5cccc6P(C)(C)=O)n[nH]c4n3)CC2)[C@@H]1N [Compound 369]
< 1000 nM	C[C@@H]1OCC2(CCN(c3cnc4c(N5CCCc6nc(-c7cnn(C8COC8)c7)ccc65)n[nH]c4n3)CC2)[C@@H]1N [Compound 372, (3S,4S)-3-methyl-8-(3-{6-[1-(oxetan-3-yl)-1H-pyrazol-4-yl]-1,2,3,4-tetrahydro-1,5-naphthyridin-1-yl}-1H-pyrazolo[3,4-b]pyrazin-6-yl)-2-oxa-8-azaspiro[4.5]decan-4-amine]
< 1000 nM	C[C@@H]1OCC2(CCN(c3cnc4c(N5CCCc6c5cccc6[N+](=O)[O-])n[nH]c4n3)CC2)[C@@H]1N [Compound 373]
< 1000 nM	C[C@@H]1OCC2(CCN(c3cnc4c(N5CCCc6c5cccc6N(C)S(C)(=O)=O)n[nH]c4n3)CC2)[C@@H]1N [Compound 374]
< 1000 nM	C[C@@H]1OCC2(CCN(c3cnc4c(N5CCCc6c(N)cccc65)n[nH]c4n3)CC2)[C@@H]1N [Compound 375, (3S,4S)-8-[3-(5-amino-1,2,3,4-tetrahydroquinolin-1-yl)-1H-pyrazolo[3,4-b]pyrazin-6-yl]-3-methyl-2-oxa-8-azaspiro[4.5]decan-4-amine]
< 1000 nM	CC(=O)Nc1cccc2c1CCCN2c1n[nH]c2nc(N3CCC4(CC3)CO[C@@H](C)[C@H]4N)cnc12 [Compound 376, N-(1-{6-[(3S,4S)-4-amino-3-methyl-2-oxa-8-azaspiro[4.5]decan-8-yl]-1H-pyrazolo[3,4-b]pyrazin-3-yl}-1,2,3,4-tetrahydroquinolin-5-yl)acetamide]
< 1000 nM	C[C@@H]1OCC2(CCN(c3cnc4c(N5CCN(C)c6nc(Cl)ccc65)n[nH]c4n3)CC2)[C@@H]1N [Compound 377]
< 1000 nM	C[C@@H]1OCC2(CCN(c3cnc4c(N5CCCc6nc(O)ccc65)n[nH]c4n3)CC2)[C@@H]1N [Compound 378]
< 1000 nM	Cc1cccc2c1N(C1CC1)CCN2c1n[nH]c2nc(N3CCC4(CC3)CO[C@@H](C)[C@H]4N)cnc12 [Compound 379]
< 1000 nM	C[C@@H]1OCC2(CCN(c3cnc4c(N5CCCc6nc(-c7cnoc7)ccc65)n[nH]c4n3)CC2)[C@@H]1N [Compound 380, (3S,4S)-3-methyl-8-{3-[6-(1,2-oxazol-4-yl)-1,2,3,4-tetrahydro-1,5-naphthyridin-1-yl]-1H-pyrazolo[3,4-b]pyrazin-6-yl}-2-oxa-8-azaspiro[4.5]decan-4-amine]
< 1000 nM	Cc1cnc(-c2ccc3c(n2)CCCN3c2n[nH]c3nc(N4CCC5(CC4)CO[C@@H](C)[C@H]5N)cnc23)s1 [Compound 382]
< 1000 nM	C[C@@H]1OCC2(CCN(c3cnc4c(N5CCN(C)c6nc(C#N)ccc65)n[nH]c4n3)CC2)[C@@H]1N [Compound 383]
< 1000 nM	Cc1cccc2c1N(C)CCN2c1n[nH]c2nc(N3CCC4(CC3)CO[C@@H](C)[C@H]4N)cnc12 [Compound 384]
≥ 10000 nM	CC1Cc2ccccc2C(=O)N1c1n[nH]c2nc(N3CCC4(CC3)CO[C@@H](C)[C@H]4N)cnc12 (some centres unmarked) [Compound 385]
< 1000 nM	C[C@@H]1OCC2(CCN(c3cnc4c(N5CCCc6c(C#N)cccc65)n[nH]c4n3)CC2)[C@@H]1N [Compound 386]
< 1000 nM	CC(C)N1CCN(c2n[nH]c3nc(N4CCC5(CC4)CO[C@@H](C)[C@H]5N)cnc23)c2cccnc21 [Compound 387]
1000 to 10000 nM	C[C@@H]1OCC2(CCN(c3cnc4c(N5CCCc6c5ccc(C#N)c6S(C)(=O)=O)n[nH]c4n3)CC2)[C@@H]1N [Compound 388]
< 1000 nM	Cc1nnc(-c2cccc3c2CCCN3c2n[nH]c3nc(N4CCC5(CC4)CO[C@@H](C)[C@H]5N)cnc23)o1 [Compound 389]
< 1000 nM	COCc1cccc2c1CCCN2c1n[nH]c2nc(N3CCC4(CC3)CO[C@@H](C)[C@H]4N)cnc12 [Compound 390]

IC50	Structure (SMILES)
< 1000 nM	COC(=O)N1CCN(c2n[nH]c3nc(N4CCC5(CC4)CO[C@@H](C)[C@H]5N)cnc23)c2ccccc21 [Compound 391]
< 1000 nM	C[C@@H]1OCC2(CCN(c3cnc4c(N5CCCc6c5cccc6N5CCCS5(=O)=O)n[nH]c4n3)CC2)[C@@H]1N [Compound 392]
< 1000 nM	C[C@@H]1OCC2(CCN(c3cnc4c(N5CCCc6sccc65)n[nH]c4n3)CC2)[C@@H]1N [Compound 394]
< 1000 nM	C[C@@H]1OCC2(CCN(c3cnc4c(N5CCN(C)c6cc(-c7ncco7)ccc65)n[nH]c4n3)CC2)[C@@H]1N [Compound 395]
< 1000 nM	C[C@@H]1OCC2(CCN(c3cnc4c(N5CCCc6nc(C7=CCCCC7)ccc65)n[nH]c4n3)CC2)[C@@H]1N [Compound 396, (3S,4S)-8-{3-[6-(cyclohex-1-en-1-yl)-1,2,3,4-tetrahydro-1,5-naphthyridin-1-yl]-1H-pyrazolo[3,4-b]pyrazin-6-yl}-3-methyl-2-oxa-8-azaspiro[4.5]decan-4-amine hydrochloride]
< 1000 nM	C/C(=N/O)c1ccc2c(n1)CCCN2c1n[nH]c2nc(N3CCC4(CC3)CO[C@@H](C)[C@H]4N)cnc12 [Compound 397, (3,4S)-8-(3-{6-[(1Z)-1-(hydroxyimino)ethyl]-1,2,3,4-tetrahydro-1,5-naphthyridin-1-yl}-1H-pyrazolo[3,4-b]pyrazin-6-yl)-3-methyl-2-oxa-8-azaspiro[4.5]decan-4-amine]
< 1000 nM	C[C@@H]1OCC2(CCN(c3cnc4c(N5CCN(C6COC6)c6cc(C#N)ccc65)n[nH]c4n3)CC2)[C@@H]1N [Compound 398]
< 1000 nM	CNC(=O)CN1CCN(c2n[nH]c3nc(N4CCC5(CC4)CO[C@@H](C)[C@H]5N)cnc23)c2ccc(C#N)cc21 [Compound 399]
< 1000 nM	C[C@@H]1OCC2(CCN(c3cnc4c(N5CCCc6c([C@H]7CCOC7)cccc65)n[nH]c4n3)CC2)[C@@H]1N [Compound 400]
< 1000 nM	C[C@@H]1OCC2(CCN(c3cnc4c(N5CCCc6c([C@@H]7CCOC7)cccc65)n[nH]c4n3)CC2)[C@@H]1N [Compound 401]
< 1000 nM	C[C@@H]1OCC2(CCN(c3cnc4c(N5CCN([C@H]6CCOC6)c6cc(C#N)ccc65)n[nH]c4n3)CC2)[C@@H]1N [Compound 402]
< 1000 nM	C[C@@H]1OCC2(CCN(c3cnc4c(N5CCN([C@@H]6CCOC6)c6cc(C#N)ccc65)n[nH]c4n3)CC2)[C@@H]1N [Compound 403]
< 1000 nM	CNC(=O)c1nccc2c1CCCN2c1n[nH]c2nc(N3CCC4(CC3)CO[C@@H](C)[C@H]4N)cnc12 [Compound 404, 1-{6-[(3S,4S)-4-amino-3-methyl-2-oxa-8-azaspiro[4.5]decan-8-yl]-1H-pyrazolo[3,4-b]pyrazin-3-yl}-N-methyl-1,2,3,4-tetrahydro-1,6-naphthyridine-5-carboxamide]
< 1000 nM	CCN1CCN(c2n[nH]c3nc(N4CCC5(CC4)CO[C@@H](C)[C@H]5N)cnc23)c2ccc(C#N)cc21 [Compound 405]
< 1000 nM	COCCN1CCN(c2n[nH]c3nc(N4CCC5(CC4)CO[C@@H](C)[C@H]5N)cnc23)c2ccc(C#N)cc21 [Compound 406]
< 1000 nM	Cc1nnc(-c2ccc3c(n2)CCCN3c2n[nH]c3nc(N4CCC5(CC4)CO[C@@H](C)[C@H]5N)cnc23)s1 [Compound 407]
< 1000 nM	C[C@@H]1OCC2(CCN(c3cnc4c(N5CCN(CCS(C)(=O)=O)c6cc(C#N)ccc65)n[nH]c4n3)CC2)[C@@H]1N [Compound 408]
< 1000 nM	CC(C)N1CCN(c2n[nH]c3nc(N4CCC5(CC4)CO[C@@H](C)[C@H]5N)cnc23)c2ccc(C#N)cc21 [Compound 409]
< 1000 nM	C#Cc1ccc2c(n1)CCCN2c1n[nH]c2nc(N3CCC4(CC3)CO[C@@H](C)[C@H]4N)cnc12 [Compound 410]
< 1000 nM	C[C@@H]1OCC2(CCN(c3cnc4c(N5CCN([C@H]6C[C@H](O)C6)c6cc(C#N)ccc65)n[nH]c4n3)CC2)[C@@H]1N [Compound 411]
< 1000 nM	C[C@@H]1OCC2(CCN(c3cnc4c(N5CCN([C@H]6C[C@@H](O)C6)c6cc(C#N)ccc65)n[nH]c4n3)CC2)[C@@H]1N [Compound 412]
< 1000 nM	C[C@@H]1OCC2(CCN(c3cnc4c(N5CCN(C)c6nnccc65)n[nH]c4n3)CC2)[C@@H]1N [Compound 413]
1000 to 10000 nM	C[C@@H]1OCC2(CCN(c3cnc4c(N5CCN(C)c6cnncc65)n[nH]c4n3)CC2)[C@@H]1N [Compound 414]
< 1000 nM	C[C@@H]1OCC2(CCN(c3cnc4c(N5CCN(C)c6cc(-c7nccs7)ccc65)n[nH]c4n3)CC2)[C@@H]1N [Compound 415]
< 1000 nM	C[C@@H]1OCC2(CCN(c3cnc4c(N5CCCc6c5ccnc6S(C)(=O)=O)n[nH]c4n3)CC2)[C@@H]1N [Compound 416]
